Measured values published in patent publication US20190076507A1, “Artificial Red Blood Cell Having Ability to Inhibit Conversion of Hemoglobin into Methemoglobin” (Public University Corporation Nara Medical University, priority 2016, published 2019).

Columns and labels:
Type in all cases: biochemical
HbO2 [1] = molecular target: T1, HbO2 (Homo sapiens, UniProt P68871+P69905); test: Oxidant-promoted metHb conversion in non-encapsulated HbO2 solution with NADH (absorbance at 630 nm); settings: 10 and 40 minutes, vs no NADH
T1 construct: The Hb released by hemolysis was filtered and collected, with the red blood cell membrane components (stroma) separated and removed; from tissue; host or cells: human red blood cells (expired donated blood); heat-treated, nanofiltered, purified and concentrated HbCO, photoconverted to HbO2
T1 sequence (P69905 2-142 limits assumed): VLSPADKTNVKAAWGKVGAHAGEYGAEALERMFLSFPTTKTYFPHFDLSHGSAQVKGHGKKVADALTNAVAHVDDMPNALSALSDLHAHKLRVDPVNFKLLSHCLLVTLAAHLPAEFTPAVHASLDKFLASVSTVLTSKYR
T1 sequence (P68871 2-147 limits assumed): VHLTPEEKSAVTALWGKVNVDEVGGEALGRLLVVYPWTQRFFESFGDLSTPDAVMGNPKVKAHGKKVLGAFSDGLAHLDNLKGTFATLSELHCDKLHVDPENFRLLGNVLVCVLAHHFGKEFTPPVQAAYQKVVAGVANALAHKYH
Description: To examine the suppression of Hb oxidation by encapsulation of NADH further in detail, similar experiments were carried out for Hb solution which was not encapsulated.
(1) First, metHb conversion supplemented with NOC7 was studied. To a cuvette with an optical path length of 1 cm, 3 mL of phosphate buffered saline, 30 μL of HbO2 solution (1.5 mM), 30 μL of NADH solution (1.5 mM) and 30 μL of NOC (1.5 mM in PBS) were mixed and the change of absorbance at 630 nm, the absorption wavelength of metHb, at 25° C. was immediately monitored for 10 minutes and for 40 minutes (FIGS. 6A and 6B). In the graphs of FIGS. 6A and 6B, the absorbance at 630 nm was put on the vertical axis and incubation time (second) was put on the horizontal axis. The three lines in FIG. 6A represent a change over time of metHb when the solution comprising HbO2 and NADH was supplemented with NOC7 (HbO2+NADH+NOC7), a change over time of metHb when the solution comprising HbO2 but not NADH was supplemented with NOC7 (HbO2+NOC7) and a change over time of metHb when the solution comprising HbO2 was neither supplemented with NADH nor NOC7 (HbO2+water). […] To a cuvette with an optical path length of 1 cm, 3 mL of PBS, 30 μL of HbO2 solution (1.5 mM), 30 μL of NADH solution (1.5 mM) and 30 μL of H2O2 (1.5 mM) were mixed and the change of absorbance at 630 nm at 25° C. was immediately monitored for 10 minutes and for 40 minutes (FIGS. 7A and 7B). In the graphs of FIGS. 7A and 7B, the absorbance at 630 nm was put on the vertical axis and incubation time (second) was put on the horizontal axis. […] To a cuvette with an optical path length of 1 cm, 3 mL of PBS, 30 μL of HbO2 solution (1.5 mM), 30 μL of NADH solution (1.5 mM) and 30 μL of NaNO2 (1.5 mM in PBS) were mixed and the change of absorbance at 630 nm at 25° C. was immediately monitored for 10 minutes and for 40 minutes (FIGS. 8A and […]). In the graphs of FIGS. 8A and […], the absorbance at 630 nm was put on the vertical axis and incubation time (second) was put on the horizontal axis. […]

HbO2 [2] = molecular target: T1, HbO2; test: Screening of suppressing effect of compounds against autoxidation of HbO2; settings: HbO2 10 g/dL, antioxidant 1 g/dL, 37° C., 24 hours
Description: NADH was purchased from Oriental Yeast Co. Ltd., and all the rest were purchased from Sigma-Aldrich (St. Louis, Mo., USA). HbCO solution was transferred to an eggplant flask and irradiated with visible light (halogen lamp; LPL Videeoligtvl-302, LPLCO. Ltd., Tokyo, Japan) under oxygen gas flow to convert to HbO2. […] The conversion ratios to metHb were determined from the visible absorption spectrum. The measurement of spectrum between 300 nm to 500 nm was conducted using a spectrophotometer (V-660, Japan Spectroscopic Company (JASCO)) mounted with a device to control the light scattering to the minimum (an integrating sphere). The atmosphere inside of a Thunberg cuvette was replaced with nitrogen gas and the conversion ratios to metHb were determined from the ratios of absorbance at 405 nm (λmax of metHb) and 430 nm (λmax of deoxyHb).

[3] = SOD (pseudo SOD) activity, pyrogallol method; settings: ratio
Description: (§1) The activity of NADH-cytochrome b5 reductase in the above-mentioned purified and concentrated HbCO solution was determined as NADH-ferricyanide reductase activity according to Beutler, E. above. Diluted Hb samples comprising the enzyme to be measured is mixed with a buffer comprising NADH. The mixed solutions were left standing for 10 minutes at 30° C., and then potassium ferricyanide (K3Fe (CN)6), the enzyme substrate, was added to start the enzyme reaction. The decrease of difference of absorbance at 340 nm, a characteristic absorption of NADH, per minute was measured to determine activity unit E (IU/gHb). […] It was reasoned that the heat-labile NADH-cytochrome b5 reductase was eliminated as denatured and insoluble, or denatured and inactivated, due to the introduction of heat treatment during the purifying step. In addition, activities of NADPH metHb reductase and NADPH diaphorase, which correspond to NADPH-flavin reductase are also determined by the above-mentioned methods according to Beutler, E. Diluted blood samples comprising the enzyme to be measured is mixed with a buffer comprising NADPH. The mixed solutions were left standing for 10 minutes at 37° C., and then methylene bleu (MeBl), the enzyme substrate, was added to start the enzyme reaction. The decrease of difference of absorbance at 340 nm, a characteristic absorption of NADPH, per minute was measured to determine activity unit E (IU/gHb). […] Catalase activity of the purified HbCO solution was determined from the change of the absorbance at 230 nm, the absorption wavelength of H2O2, according to Beutler, E. (RED CELL METABOLISM: A MANUAL OF BIOCHEMICAL METHOD, Grune &Stratton, Inc. pp. 105-106 (1987)). […] Pyrogallol was used for measurement of SOD activity (Marklund, S. and Marklund, G., Eur. J. Biochem. 47, 469-474 (1974); Roth, E. F. Jr. and Gilbert, H. S., Anal. Biochem. 137, 50-53(1984)). Pyrogallol is oxidized with oxygen to generate superoxide, and further reacted to generate a yellow dye with absorbance at 420 nm. SOD inhibits this reaction. SOD enzyme activity was determined based on this inhibitory activity. Analyzed specimens were solutions of purified HbO2, HbCO, metHb and solutions thereof further comprising NADH or L-tyrosine In addition, enzyme activity of crude SFHb solution was also determined as a control. […] When NADH and HbO2 were coexisted, however, high CAT and SOD pseudo activities (Table 1). […] The pseudo activity was detected when NADH alone was present, however, the activity was about a tenth ( 1/10) compared with when HbO2 was coexisted. […] There were results showing that this pseudo activity increased as more NADH was added.

[4] = Catalase (pseudo CAT) activity from change of absorbance at 230 nm of H2O2
Description: as §1

NADPH-flavin reductase = molecular target: T2, NADPH-flavin reductase (Homo sapiens, UniProt P30043); test: NADPH metHb reductase / NADPH diaphorase (NADPH-flavin reductase) activity with methylene blue; settings: 37° C., methylene blue substrate, decrease of absorbance at 340 nm
T2 construct: from tissue; host or cells: human red blood cells (expired donated blood), crude stroma-free haemolysate (SFHb)
T2 sequence (P30043 1-206): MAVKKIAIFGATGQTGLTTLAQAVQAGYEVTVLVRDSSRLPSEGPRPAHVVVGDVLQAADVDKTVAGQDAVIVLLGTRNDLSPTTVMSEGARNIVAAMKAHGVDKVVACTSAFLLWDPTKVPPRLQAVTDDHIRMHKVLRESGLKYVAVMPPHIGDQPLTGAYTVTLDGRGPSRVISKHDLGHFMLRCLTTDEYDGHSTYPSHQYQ
Description: Determination of NADPH-flavin reductase activity may be carried out according to Beutler, E. (RED CELL METABOLISM: A MANUAL OF BIOCHEMICAL METHOD, Grune &Stratton, Inc., pp. 79-80 (1987)). The principle of determination of this method is to measure […]. The reaction of reducing methylene bleu (MeBl) to leucomethylene blue (LeukMeBl) as follows:
NADPH+H^++MeBl→NADP^++LeukMeBl
the reaction is known to be slow. The enzyme activity is measured by tracing the degree of acceleration by adding sample comprising oxygen. The measurement is carried out based on the above-mentioned principle by measuring the change (decrease) in absorbance at 340 nm which is the characteristic absorption of the consumed NADPH.
The activity of NADH-cytochrome b5 reductase in the above-mentioned purified and concentrated HbCO solution was determined as NADH-ferricyanide reductase activity according to Beutler, E. above. Diluted Hb samples comprising the enzyme to be measured is mixed with a buffer comprising NADH. […] The decrease of difference of absorbance at 340 nm, a characteristic absorption of NADH, per minute was measured to determine activity unit E (IU/gHb). […] The decrease of difference of absorbance at 340 nm, a characteristic absorption of NADPH, per minute was measured to determine activity unit E (IU/gHb). […]

[5] = molecular target: T3, NADH-cytochrome b5 reductase (Homo sapiens, UniProt P00387); test: NADH-cytochrome b5 reductase activity determined as NADH-ferricyanide reductase activity; settings: 30° C., potassium ferricyanide substrate, decrease of absorbance at 340 nm
T3 construct: from tissue; host or cells: human red blood cells (expired donated blood), crude stroma-free haemolysate (SFHb)
T3 sequence (P00387 1-278 isoform P00387-2): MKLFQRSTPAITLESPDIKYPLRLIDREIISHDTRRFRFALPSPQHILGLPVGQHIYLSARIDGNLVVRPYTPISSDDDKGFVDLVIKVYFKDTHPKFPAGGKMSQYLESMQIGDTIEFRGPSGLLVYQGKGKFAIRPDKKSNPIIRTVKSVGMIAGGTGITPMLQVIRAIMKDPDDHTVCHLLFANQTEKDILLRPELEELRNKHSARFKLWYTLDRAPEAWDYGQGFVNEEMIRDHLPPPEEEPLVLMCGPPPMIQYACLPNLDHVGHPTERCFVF
Description: For the enzyme for reducing metHb herein, “substantially free of enzyme activity” means that the enzyme activity is 10%, 5%, 3%, 1%, 0.5%, 0.2%, 0.1%, 0.05% or 0.03% or less, or below detectable limits, of enzyme activity of the enzyme for reducing metHb existing in the Hb solution purified and concentrated from blood derived from humans or domestic animals. The enzyme activity of the enzyme for reducing metHb herein disclosed herein is determined, for example, by the following procedure. Determination of NADH-cytochrome b5 reductase may be carried out according to Beutler, E. (RED CELL METABOLISM: A MANUAL OF BIOCHEMICAL METHOD, Grune &Stratton, Inc., pp. 81-82 (1987)). […]
the enzyme activity is measured by tracing the degree of acceleration by adding sample comprising oxygen. The measurement is carried out by measuring the change (decrease) in absorbance at 340 nm which is the characteristic absorption of the consumed NADH.
The activity of NADH-cytochrome b5 reductase in the above-mentioned purified and concentrated HbCO solution was determined as NADH-ferricyanide reductase activity according to Beutler, E. above. Diluted Hb samples comprising the enzyme to be measured is mixed with a buffer comprising NADH. […] The decrease of difference of absorbance at 340 nm, a characteristic absorption of NADH, per minute was measured to determine activity unit E (IU/gHb). […]

## NC(=O)C1=CN([C@@H]2O[C@H](COP(=O)(O)OP(=O)(O)OC[C@H]3O[C@@H](n4cnc5c(N)ncnc54)[C@H](O)[C@@H]3O)[C@@H](O)[C@H]2O)C=CC1 [NADH, nicotinamide adenine dinucleotide (NADH)]
HbO2 [1]; HbO2 solution + H2O2, 25° C.
  increase of metHb-specific absorbance at 630 nm: remarkably suppressed
HbO2 [1]; HbO2 solution + NOC7, 25° C.
  increase of metHb-specific absorbance at 630 nm: remarkably suppressed
HbO2 [1]; HbO2 solution + NaNO2, 25° C.
  increase of metHb-specific absorbance at 630 nm: remarkably suppressed
HbO2 [2]
  metHb conversion (%): 17%
[3]
  SOD pseudo activity of NADH alone compared with when HbO2 was coexisted: 1/10
[4]; ratio
  CAT pseudo activity of NADH alone compared with when HbO2 was coexisted: 1/10

## purified and concentrated Hb: human Hb purified with heat treatment (60° C., 12 hours) and nanofiltration, concentrated to 40 to 42 g/dL
NADPH-flavin reductase
  NADPH metHb reductase / NADPH diaphorase (NADPH-flavin reductase) activity (activity unit E): below 0.01 IU/gHb
NADPH-flavin reductase; listed as Hb solution
  NADPH metHb reductase / NADPH diaphorase (NADPH-flavin reductase) activity (activity unit E): does not show enzymatic activities
[4]; change of absorbance at 230 nm of H2O2, Example 1
  Catalase activity: ≤ 0.03×10^4 IU/gHb
[5]
  NADH-cytochrome b5 reductase activity (activity unit E): did not detect any activity
[5]; listed as Hb solution
  NADH-cytochrome b5 reductase activity (activity unit E): does not show enzymatic activities
